This is an account of results in ChEMBL document CHEMBL1201862, “PubChem BioAssay data set” (2004).

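Each compound was tested at five concentrations against cells in 96-well plates for 48 hours. At the GI50, growth is halved.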 Active and inactive are the calls of the source. No stated cut-off is given here; in the data, active = GI50 up to about 1.1 µM and inactive = higher.

What all share (experiment): NCI tumour cell line growth inhibition, 48 h
Assay [1] has as its system UACC-62.
Assay [2] concerns K562.
Assay [3] concerns HT-29.
The test system of assay [4] is SN12C.
Assay [5] relates to NCI-H460.
Assay [6] concerns HL-60.
The subject of assay [7] is UO-31.
The test system of assay [8] is M14.
Assay [9] has as its system UACC-257.
In assay [10] the test system is IGROV-1.
Assay [11] relates to NCI-H522.
In assay [12] the test system is RPMI-8226.
Assay [13] relates to SR.
The test system of assay [14] is DU-145.
The test system of assay [15] is HOP-92.
The subject of assay [16] is MCF7.
In assay [17] the test system is ACHN.
Assay [18] concerns EKVX.
The subject of assay [19] is RXF 393.
Assay [20] deals with SK-MEL-5.

With `COC(=O)C1CCC(=O)N1C(c1cc(OC)c(OC)c(OC)c1)c1cccc2ccccc12` (configuration not stated), the GI50 is 45 µM (inactive) in assay [1]; 75.9 µM (inactive) in assay [2]; 35.6 µM (inactive) in assay [3]; > 100 µM (inactive) in assay [4]; > 100 µM (inactive) in [5]; 11.7 µM (inactive) in assay [6]. The GI50 is 61.2 µM (inactive) in assay [7]; > 100 µM (inactive) in [8]; > 100 µM (inactive) in [9]; > 100 µM (inactive) in assay [10]; 51.5 µM (inactive) in [11]; 76.6 µM (inactive) in assay [12]. Besides, the GI50 was 32.7 µM (inactive) in assay [13]; > 100 µM (inactive) in [14]; 38.2 µM (inactive) in assay [15]; > 100 µM (inactive) in assay [16]; > 100 µM (inactive) in assay [17]; > 100 µM (inactive) in assay [18].
With `CNC(=O)OCCN1c2ccccc2Sc2ccccc21`, the GI50 was 4.99 µM (inactive) in [1]; > 100 µM (inactive) in [2]; 19.2 µM (inactive) in assay [19]; > 100 µM (inactive) in assay [3]; > 100 µM (inactive) in [4]; 50.4 µM (inactive) in assay [20]. For the same compound, the GI50 was 86.7 µM (inactive) in [5]; > 100 µM (inactive) in assay [6]; 69.2 µM (inactive) in assay [7]; > 100 µM (inactive) in [8]; > 100 µM (inactive) in assay [9]; 42.1 µM (inactive) in assay [10]. In addition, the GI50 in assay [11] is > 100 µM (inactive); in assay [13], > 100 µM (inactive); in assay [14] it was > 100 µM (inactive); in assay [15], 50.4 µM (inactive); in assay [16] it was > 100 µM (inactive); in assay [17], 73.6 µM (inactive). In addition, the GI50 in [18] is 17.1 µM (inactive).
On to `C[C@H](c1ccccc1)n1c(N)c(-c2nc3ccccc3s2)c2ccc([N+](=O)[O-])cc2c1=O`, for which the GI50 in assay [1] is 4.33 µM (inactive); in assay [2], 1.23 µM (inactive); in assay [3] it was 5.37 µM (inactive); in assay [4], 8.32 µM (inactive); in assay [20], 4.8 µM (inactive); in assay [5] it was 4.09 µM (inactive). For the same compound, the GI50 is 0.327 µM (active) in assay [6]; 3.83 µM (inactive) in assay [7]; 14.8 µM (inactive) in [8]; 11.8 µM (inactive) in assay [9]; 8.13 µM (inactive) in assay [10]; 1.32 µM (inactive) in assay [11]. Also, the GI50 was 0.324 µM (active) in assay [12]; 1.44 µM (inactive) in assay [13]; 2.31 µM (inactive) in [14]; 1.59 µM (inactive) in assay [15]; 9.27 µM (inactive) in assay [16]; 10.1 µM (inactive) in assay [17]. The GI50 in assay [18] was 25.1 µM (inactive).
For `O=[N+]([O-])/C(C(Cl)=C(Cl)Cl)=C1\NCCO1`, the GI50 in assay [1] is 35.7 µM (inactive); in assay [2] it was > 100 µM (inactive); in assay [19], 90.4 µM (inactive); in assay [3] it was > 100 µM (inactive); in [4], > 100 µM (inactive); in assay [20], > 100 µM (inactive). The GI50 in assay [5] was > 100 µM (inactive); in assay [6] it was 81.5 µM (inactive); in assay [7], > 100 µM (inactive); in [8] it was > 100 µM (inactive); in assay [9], > 100 µM (inactive); in assay [10], > 100 µM (inactive). Also, the GI50 in assay [11], in [12], in assay [13], in assay [14], in [16] and in [17] was > 100 µM (inactive) throughout. The GI50 in assay [18] was > 100 µM (inactive).
Turning to `COc1cccc(/N=N/C(=NNC(=O)c2ccc(C)cc2)c2ccc(N(C)C)cc2)c1`, the GI50 in assay [2] is 44 µM (inactive); in [3] it was > 100 µM (inactive); in assay [4] it was > 100 µM (inactive); in [20] it was 98.2 µM (inactive); in assay [5], > 100 µM (inactive); in [6] it was > 100 µM (inactive). Besides, the GI50 in [7], in assay [8], in assay [9], in assay [10], in assay [11] and in assay [12] was > 100 µM (inactive) in each case. The GI50 in assay [13] was 62.5 µM (inactive); in assay [14], > 100 µM (inactive); in assay [15], > 100 µM (inactive); in assay [16], > 100 µM (inactive); in [17], > 100 µM (inactive); in [18], > 100 µM (inactive).
As to `COc1ccccc1/C=C/C1=NN(c2cccc(S(=O)(=O)O)c2)C2(C1)C(Cl)C(=O)N2c1nc2ccccc2s1` (configuration not stated), the GI50 is 48.8 µM (inactive) in [1]; 31.4 µM (inactive) in assay [2]; 31.3 µM (inactive) in [19]; 82.4 µM (inactive) in assay [3]; > 84.1 µM (inactive) in [4]; 28.6 µM (inactive) in assay [20]. In addition, the GI50 in assay [5] is 37.8 µM (inactive); in assay [6] it was 22.1 µM (inactive); in [7] it was 16.9 µM (inactive); in assay [8], > 75.3 µM (inactive); in [9], 56.8 µM (inactive); in assay [10], 28.5 µM (inactive). For the same compound, the GI50 in [11] is 9.04 µM (inactive); in assay [12], 19 µM (inactive); in [13], 22.1 µM (inactive); in [14], 67 µM (inactive); in assay [16], 40.7 µM (inactive); in assay [17], 57.3 µM (inactive). For the same compound, the GI50 in [18] was 43.4 µM (inactive).
Turning to `CS/C(=N/S(=O)(=O)c1ccc(Cl)cc1)NCCCN/C(=N\S(=O)(=O)c1ccc(Cl)cc1)SC`, the GI50 is 16.9 µM (inactive) in [1]; 6.11 µM (inactive) in assay [2]; 22.8 µM (inactive) in assay [3]; 5.08 µM (inactive) in assay [4]; 10.2 µM (inactive) in assay [5]; 8.38 µM (inactive) in assay [6]. The GI50 is 13 µM (inactive) in [7]; 15.4 µM (inactive) in [8]; 6.15 µM (inactive) in assay [9]; 30.4 µM (inactive) in [10]; 13.7 µM (inactive) in assay [12]; 4.34 µM (inactive) in [13]. Also, the GI50 is 23.6 µM (inactive) in assay [14]; 1.81 µM (inactive) in assay [15]; 8.28 µM (inactive) in assay [16]; 12.1 µM (inactive) in assay [17]; 12.7 µM (inactive) in assay [18].
Consider `CS(=O)(=O)OCOS(C)(=O)=O`, for which the GI50 is > 100 µM (inactive) in assay [1]; > 100 µM (inactive) in [2]; 48.3 µM (inactive) in assay [3]; > 100 µM (inactive) in [4]; > 100 µM (inactive) in assay [20]; 39.8 µM (inactive) in assay [5]. The GI50 is 26.7 µM (inactive) in assay [6]; > 100 µM (inactive) in assay [7]; > 100 µM (inactive) in assay [8]; > 100 µM (inactive) in [9]; > 100 µM (inactive) in assay [10]; 31.9 µM (inactive) in assay [12]. In addition, the GI50 in assay [13] was 20.2 µM (inactive); in assay [14], 59.6 µM (inactive); in assay [15] it was > 100 µM (inactive); in assay [16], 34.4 µM (inactive); in assay [17] it was 58.9 µM (inactive); in assay [18] it was > 100 µM (inactive).
